Results published in patent US12297453B2, “Generation of norepinephrine neurons from human stem cells” (Wisconsin Alumni Research Foundation, priority 2020, dated 2025).

Columns and labels:
[1] = tested on: human ESC-derived NE neurons; test: Whole-cell patch clamp recording of spontaneous action potential firing; type: cell-based; conditions: 1 mM; reversed upon washing away
Protocol: gRNA was designed according to Benchling. Donor plasmid was generated by NEBuilder® HiFi DNA Assembly Master Mix (NEB, E2621S). Briefly, hPSCs were digested by TrypLE Express. Gene Pulser Xcell (Bio-Rad) was used for CRISPR/Cas9 delivery. Two-million cells were electroporated with 15 μg of sgRNA plasmid (pLenti-CRISPR) with 30 μg donor plasmid. Cells were plated at ˜150,000 cells/well of 6-well plate. Starting 24 hours after electroporation, 0.5 μg/ml puromycin were added to the culture medium. After 3 days of puromycin selection, hPSCs were switched to their normal culture medium and fed every other day until approximately 1-2 weeks after electroporation when distinct colonies were established. • Cell transplantation: Small aggregates of NE neural progenitors (day 10-day 12) were collected and suspended in artificial cerebral spinal fluid (aCSF) containing Rock inhibitor (0.5 μM), at a concentration of 100,000 cells/μl. 1 μl of cells were slowly injected into the left cortex (AP=+0.0 mm, ML=+1.8 mm, DV=−1.7 mm, from skull) of adult SCID mice (8-12 weeks) that were anesthetized with 1%-2% isoflurane mixed in oxygen. • Immunocytochemistry and flow cytometry: Immunocytochemistry was performed as described previously. […] After the last wash, cells were suspended in washing buffer and analyzed by flow cytometry (BD LSR or BD LSRII). […]

[2] = tested on: GRABNE1m sensor-expressing NE neurons; test: Fluorescence imaging of GRABNE1m sensor cells; type: cell-based, human; conditions: norepinephrine reuptake inhibitor treatment
hESC-derived NE neurons = test: NE content in supernatant of NE neuron culture by ELISA; type: cell-based, human
Protocol: gRNA was designed according to Benchling. Donor plasmid was generated by NEBuilder® HiFi DNA Assembly Master Mix (NEB, E2621S). Briefly, hPSCs were digested by TrypLE Express. Gene Pulser Xcell (Bio-Rad) was used for CRISPR/Cas9 delivery. Two-million cells were electroporated with 15 μg of sgRNA plasmid (pLenti-CRISPR) with 30 μg donor plasmid. Cells were plated at ˜150,000 cells/well of 6-well plate. Starting 24 hours after electroporation, 0.5 μg/ml puromycin were added to the culture medium. After 3 days of puromycin selection, hPSCs were switched to their normal culture medium and fed every other day until approximately 1-2 weeks after electroporation when distinct colonies were established. • Cell transplantation: Small aggregates of NE neural progenitors (day 10-day 12) were collected and suspended in artificial cerebral spinal fluid (aCSF) containing Rock inhibitor (0.5 μM), at a concentration of 100,000 cells/μl. 1 μl of cells were slowly injected into the left cortex (AP=+0.0 mm, ML=+1.8 mm, DV=−1.7 mm, from skull) of adult SCID mice (8-12 weeks) that were anesthetized with 1%-2% isoflurane mixed in oxygen. • Immunocytochemistry and flow cytometry: Immunocytochemistry was performed as described previously. See Huang et al., 2016, Sci Rep, 6:32600, doi:10.1038/srep32600. In brief, cells on coverslips were fixed in 4% neutral-buffered paraformaldehyde (PFA) for 10 minutes (min) at room temperature. Following rinsing with PBS, these cells were incubated in 0.2% Triton X-100 (in phosphate buffered saline (PBS)) for 10 min followed by 10% donkey serum (in PBS) at room temperature for 1 hour (h). The cells were then incubated with primary antibodies diluted in 5% donkey serum in 0.1% Triton X100 (in PBS) at 4° C. overnight, followed by fluorescently conjugated secondary antibodies at room temperature for 30 min. The nuclei were stained with Hoechst. Images were collected with a Nikon A1 laser-scanning confocal microscope. Flow cytometry was performed using Transcription Factor Buffer Set which is designed for transcription factor staining following manufacturer's instruction. Briefly, single cells were prepared using TrypLE Express Enzyme and fixed in the fixation buffer provided by the kit at 2-8° C. for 45 min. After 3 washings with the permeable buffer, primary antibodies were added to cells for 45 min at 2-8° C. in a light-tight box. Cells were washed three times before fluorescently conjugated secondary antibodies. Second antibodies were incubated with cells for 45 minutes at 2-8° C. in a light-tight box and followed by washing three times. After the last wash, cells were suspended in washing buffer and analyzed by flow cytometry (BD LSR or BD LSRII). […]

[3] = tested on: human NE neuron progenitor cells; conditions: in neural differentiation medium
Text: On day 5, change the medium without SB431542. […] Cells were feed daily.

Structure (SMILES) | sAP firing rate [1] | GRABNE1m sensor intensity (extracellular norepinephrine) [2] | NE content in the supernatants (hESC-derived NE neurons) | yield of human TH+/DBH+ NE neurons [3]
Clc1cccc(Cl)c1N=C1NCCN1 [Clonidine] | reduced the sAP firing rating significantly |  |  | 
CNCCCC12CCC(c3ccccc31)c1ccccc12 [Maprotiline] |  | increase | increased the NE content | 
CNCCC(Oc1ccccc1OC)c1ccccc1 (stereo not shown) [Nisoxetine] |  | increase | increased the NE content | 
CCOc1ccccc1OC(c1ccccc1)C1CNCCO1 (stereo not shown) [Reboxetine] |  | increase | increased the NE content | 
CNCC[C@@H](Oc1ccccc1C)c1ccccc1 [Tomoxetine] |  | increase | increased the NE content | 
Nc1ncnc2c1ncn2[C@@H]1O[C@@H]2COP(=O)(O)O[C@H]2[C@H]1O [cAMP] |  |  |  | boost yield
